Measured values published in patent publication US8779142B2, “Azabicyclo compound and salt thereof” (Taiho Pharmaceutical Co., Ltd., priority 2009, dated 2014).
Read-outs that look alike come from different tables or passages of the source.

Key:
[1] = target: human HSP90 alpha protein (HSP90 N-terminal protein, amino acids 2-236) (Homo sapiens (Human), UniProt P07900); assay: Measurement of HSP90-binding activity (AlphaScreen competitive assay, biotin-labeled geldanamycin); conditions: read-out: HSP-binding activity IC50
SK-BR-3 cells = assay: Measurement of cell growth inhibition (crystal violet staining method); format: cell-based
[2] = concentration inhibiting binding of biotin-labeled geldanamycin (40 nM) to purified HSP90 to 50% of control
[3] = Homo sapiens, breast cancer SK-BR-3 cells, 72 hr culture with test substance

Molecule	IC50 [1, 2] [µM]	IC50 (SK-BR-3 cells; [3]) [µM]	other results
CCNc1cc(-n2nc(C(C)C)c3c(-n4cnc(-c5cccnc5)c4)ccnc32)ccc1C(N)=O [Example 139, 2-(Ethylamino)-4-{3-isopropyl-4-(4-(pyridin-3-yl)-1H-imidazol-1-yl)-1H-pyrazolo[3,4-b]pyridin-1-yl}benzamide]	0.57	0.28	
CC(C)c1nn(-c2ccc(C(N)=O)cc2N)c2nccc(-n3cnc(-c4cnn(C)c4)c3)c12 [Example 107, 3-Amino-4-{3-isopropyl-4-(4-(1-methyl-1H-pyrazol-4-yl)-1H-imidazol-1-yl)-1H-pyrazolo[3,4-b]pyridin-1-yl}benzamide]	0.2	0.9	
CC(C)c1nn(-c2ccc(C(N)=O)c(NCCN3CCCC3)c2)c2nccc(-n3cnc(-c4cnn(C)c4)c3)c12 [Example 115, 4-{3-Isopropyl-4-(4-(1-methyl-1H-pyrazol-4-yl)-1H-imidazol-1-yl)-1H-pyrazolo[3,4-b]pyridin-1-yl}-2-{2-(pyrrolidin-1-yl)ethylamino}benzamide]	0.16	0.24	
CC(C)c1nn(-c2ccc(C(N)=O)c(N[C@H]3CC[C@H](O)CC3)c2)c2nccc(-c3cccnc3)c12 [Example 7, 2-(Trans-4-hydroxycyclohexylamino)-4-{3-isopropyl-4-(pyridin-3-yl)-1H-pyrazolo[3,4-b]pyridin-1-yl}benzamide]	0.34	0.23	
CC(C)c1nn(-c2ccc(C(N)=O)c(NC(C)(C)C)c2)c2nccc(-n3cnc(-c4cccnc4)c3)c12 [Example 141, 2-(Tert-butylamino)-4-{3-isopropyl-4-(4-(pyridin-3-yl)-1H-imidazol-1-yl)-1H-pyrazolo[3,4-b]pyridin-1-yl}benzamide]	0.41	0.14	
CC(C)c1nn(-c2ccc(C(N)=O)c(NC3CCC(O)CC3)c2)c2nccc(-n3cnc(-c4ccsc4)c3)c12 (stereo not drawn) [Example 91]	0.43		IC50 (SK-BR-3 cells; breast cancer SK-BR-3 cells, 72 hr culture with test substance): 0.07 µM
CC(C)c1nn(-c2ccc(C(N)=O)cc2C#N)c2nccc(-n3cnc(-c4cnn(C)c4)c3)c12 [Example 124, 3-Cyano-4-{3-isopropyl-4-(4-(1-methyl-1H-pyrazol-4-yl)-1H-imidazol-1-yl)-1H-pyrazolo[3,4-b]pyridin-1-yl}benzamide]	0.35	0.59	
2-(Trans-4-methylsulfonamidocyclohexylamino)-4-{3-methyl-4-(quinolin-3-yl)-1H-pyrrolo[2,3-b]pyridin-1-yl}benzamide [Example 63]			IC50 [1]: 0.47 µM; IC50 (SK-BR-3 cells): 0.17 µM
CC(C)c1nn(-c2ccc(C(N)=O)c(NC3CCC(O)CC3)c2)c2nccc(-n3cnc(-c4ccco4)c3)c12 (stereo not drawn) [Example 88, 4-{4-(4-(Furan-2-yl)-1H-imidazol-1-yl)-3-isopropyl-1H-pyrazolo[3,4-b]pyridin-1-yl}-2-(4-hydroxycyclohexylamino)benzamide]	0.68	0.23	
CC(C)c1nn(-c2ccc(C(N)=O)c(NC3CCC(O)CC3)c2)c2nccc(-n3cnc(-c4ccoc4)c3)c12 (stereo not drawn) [Example 90, 4-{4-(4-(Furan-3-yl)-1H-imidazol-1-yl)-3-isopropyl-1H-pyrazolo[3,4-b]pyridin-1-yl}-2-(4-hydroxycyclohexylamino)benzamide]	0.23	0.04	
CCNc1cc(-n2nc(C(F)(F)F)c3c(-n4cnc(-c5cnn(C)c5)c4)ccnc32)ccc1C(N)=O [Example 161, 2-(Ethylamino)-4-{4-(4-(1-methyl-1H-pyrazol-4-yl)-1H-imidazol-1-yl)-3-(trifluoromethyl)-1H-pyrazolo[3,4-b]pyridin-1-yl}benzamide]	0.17	0.06	
CC(C)c1nn(-c2ccc(C(N)=O)c(NC3CCN(C(=O)CN)CC3)c2)c2nccc(-c3cnc4ccccc4c3)c12 [Example 79, 2-{1-(2-Aminoacetyl)piperidin-4-ylamino}-4-{3-isopropyl-4-(quinolin-3-yl)-1H-pyrazolo[3,4-b]pyridin-1-yl}benzamide]	0.25	0.02	
Cc1cn(-c2ccc(C(N)=O)c(NC3CCC(O)CC3)c2)c2nccc(-n3cnc(-c4ccccc4)c3)c12 (stereo not drawn) [Example 97, 2-(4-Hydroxycyclohexylamino)-4-{3-methyl-4-(4-phenyl-1H-imidazol-1-yl)-1H-pyrrolo[2,3-b]pyridin-1-yl}benzamide]	0.24	0.07	
Cc1c(C(N)=O)ccc(-n2nc(C(C)C)c3c(-n4cnc(-c5cnn(C)c5)c4)ccnc32)c1C [Example 129, 4-{3-Isopropyl-4-(4-(1-methyl-1H-pyrazol-4-yl)-1H-imidazol-1-yl)-1H-pyrazolo[3,4-b]pyridin-1-yl}-2,3-dimethylbenzamide]	0.29	1.13	
CC(C)c1nn(-c2ccc(C(N)=O)cc2CN2CCOCC2)c2nccc(-n3cnc(-c4cnn(C)c4)c3)c12 [Example 127, 4-{3-Isopropyl-4-(4-(1-methyl-1H-pyrazol-4-yl)-1H-imidazol-1-yl)-1H-pyrazolo[3,4-b]pyridin-1-yl}-3-(morpholinomethyl)benzamide]	0.23	1.56	
CCNc1cc(C(N)=O)ccc1-n1nc(C(F)(F)F)c2c(-n3cnc(-c4cnn(C)c4)c3)ccnc21 [Example 162, 3-(Ethylamino)-4-{4-(4-(1-methyl-1H-pyrazol-4-yl)-1H-imidazol-1-yl)-3-(trifluoromethyl)-1H-pyrazolo[3,4-b]pyridin-1-yl}benzamide]	0.11	0.09	
CC(C)Nc1cc(C(N)=O)ccc1-n1nc(C(C)C)c2c(-n3cnc(-c4cnn(C)c4)c3)ccnc21 [Example 120, 4-{3-Isopropyl-4-(4-(1-methyl-1H-pyrazol-4-yl)-1H-imidazol-1-yl)-1H-pyrazolo[3,4-b]pyridin-1-yl}-3-(isopropylamino)benzamide]	0.2	0.14	
COCCNc1cc(C(N)=O)ccc1-n1nc(C(F)(F)F)c2c(-n3cnc(-c4cnn(C)c4)c3)ccnc21 [Example 168, 3-(2-Methoxyethylamino)-4-{4-(4-(1-methyl-1H-pyrazol-4-yl)-1H-imidazol-1-yl)-3-(trifluoromethyl)-1H-pyrazolo[3,4-b]pyridin-1-yl}benzamide]	0.07	0.06	
CCNc1cc(-n2nc(C(C)C)c3c(-n4cnc(-c5cnn(C(F)F)c5)c4)ccnc32)ccc1C(N)=O [Example 147, 4-{4-(4-(1-(Difluoromethyl)-1H-pyrazol-4-yl)-1H-imidazol-1-yl)-3-isopropyl-1H-pyrazolo[3,4-b]pyridin-1-yl}-2-(ethylamino)benzamide]	0.81	0.36	
Cc1cn(-c2ccc(C(N)=O)c(NCCCCO)c2)c2nccc(-c3cnc4ccccc4c3)c12 [Example 55, 2-(4-Hydroxybutylamino)-4-{3-methyl-4-(quinolin-3-yl)-1H-pyrrolo[2,3-b]pyridin-1-yl}benzamide]	2.81	0.92	
Cc1cc(C(N)=O)ccc1-n1nc(C(C)C)c2c(-c3cnc4ccccc4c3)ccnc21 [Example 80, 4-{3-Isopropyl-4-(quinolin-3-yl)-1H-pyrazolo[3,4-b]pyridin-1-yl}-3-methylbenzamide]	0.47	0.29	
CCc1cn(-c2ccc(C(N)=O)c(N[C@H]3CC[C@H](OC(=O)CN)CC3)c2)c2nccc(-c3cnc4ccccc4c3)c12 [Example 42, Trans-4-{2-carbamoyl-5-{3-ethyl-4-(quinolin-3-yl)-1H-pyrrolo[2,3-b]pyridin-1-yl}phenylamino}cyclohexyl-2-aminoacetate dimethanesulfonate]	0.19		IC50 (SK-BR-3 cells; Homo sapiens, SK-BR-3, 72 h): 0.03 µM
C=Cc1cc(C(N)=O)ccc1-n1nc(C(C)C)c2c(-n3cnc(-c4cnn(C)c4)c3)ccnc21 [Example 101, 4-{3-Isopropyl-4-(4-(1-methyl-1H-pyrazol-4-yl)-1H-imidazol-1-yl)-1H-pyrazolo[3,4-b]pyridin-1-yl}-3-vinylbenzamide]	0.22	0.29	
COc1cc(C(N)=O)ccc1-n1nc(C(C)C)c2c(-n3cnc(-c4cccnc4)c3)ccnc21 [Example 142, 4-{3-Isopropyl-4-(4-(pyridin-3-yl)-1H-imidazol-1-yl)-1H-pyrazolo[3,4-b]pyridin-1-yl}-3-methoxybenzamide]	0.12	0.22	
COc1ccc2ccn(-c3ccc(C(N)=O)c(NC4CCC(O)CC4)c3)c2c1 (stereo not drawn) [Comparative Example 1, reference compound]	> 100	> 10	
CC(C)Nc1cc(-n2nc(C(C)C)c3c(-n4cnc(-c5cnn(C)c5)c4)ccnc32)ccc1C(N)=O [Example 111, 4-{3-Isopropyl-4-(4-(1-methyl-1H-pyrazol-4-yl)-1H-imidazol-1-yl)-1H-pyrazolo[3,4-b]pyridin-1-yl}-2-(isopropylamino)benzamide]	0.19	0.08	
CC(C)Nc1cc(-n2nc(C(C)C)c3c(-n4cnc(-c5cccnc5)c4)ccnc32)ccc1C(N)=O [Example 140, 4-{3-Isopropyl-4-(4-(pyridin-3-yl)-1H-imidazol-1-yl)-1H-pyrazolo[3,4-b]pyridin-1-yl}-2-(isopropylamino)benzamide]	0.76	0.19	
CN(C)c1cc(C(N)=O)ccc1-n1nc(C(F)(F)F)c2c(-n3cnc(-c4cnn(C)c4)c3)ccnc21 [Example 159, 3-(Dimethylamino)-4-{4-(4-(1-methyl-1H-pyrazol-4-yl)-1H-imidazol-1-yl)-3-(trifluoromethyl)-1H-pyrazolo[3,4-b]pyridin-1-yl}benzamide]	0.21	0.29	
NC(=O)c1ccc(-n2ccc3ccccc32)c(Cl)c1 [Comparative Example 6, reference compound]	> 100	> 10	
Cc1cn(-c2ccc(C(N)=O)c(NCC(C)(C)O)c2)c2nccc(-c3cnc4ccccc4c3)c12 [Example 58, 2-(2-Hydroxy-2-methylpropylamino)-4-{3-methyl-4-(quinolin-3-yl)-1H-pyrrolo[2,3-b]pyridin-1-yl}benzamide]	0.46	0.21	
